Results: PMC11255275, “Structural insights into the triple agonism at GLP-1R, GIPR and GCGR manifested by retatrutide” (Cell Discovery, 2024)
Numbering of substitutions follows the chain as printed. Like-named read-outs stand apart in the source and are kept apart here.

Columns and labels:
[1] = biological target: T1, GIPR mutants (Homo sapiens, UniProt P48546, Q285A); assay: cAMP accumulation, single-point mutated GIPR; assay type: cell-based; conditions: GIPR Q285(ECL2)A; HEK-293T, 40 min, TR-FRET; mean ± S.E.M., n at least 3
T1 construct: expressed in transfected cells; host or cells: HEK-293T
T1 sequence (P48546 22-466 Q285A): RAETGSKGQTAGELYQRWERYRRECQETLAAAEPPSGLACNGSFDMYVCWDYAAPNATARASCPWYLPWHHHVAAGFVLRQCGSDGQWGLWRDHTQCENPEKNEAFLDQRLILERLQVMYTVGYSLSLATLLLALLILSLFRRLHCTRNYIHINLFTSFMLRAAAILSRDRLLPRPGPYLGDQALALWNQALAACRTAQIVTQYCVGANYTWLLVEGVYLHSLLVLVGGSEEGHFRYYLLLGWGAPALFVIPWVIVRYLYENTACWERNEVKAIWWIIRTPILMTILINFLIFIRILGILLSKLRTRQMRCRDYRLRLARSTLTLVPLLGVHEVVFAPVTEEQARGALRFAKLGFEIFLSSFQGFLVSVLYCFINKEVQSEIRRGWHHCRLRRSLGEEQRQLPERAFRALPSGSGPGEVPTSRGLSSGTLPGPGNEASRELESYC
Description: (§1) HEK-293T cells were maintained at 37°C in 5% CO2 incubator and seeded onto 6-well cell […]
(§2) culture plates before transfection. After overnight culture, the cells were transiently transfected […]
(§3) with various constructs using Lipofectamine 2000 transfection reagent (Invitrogen). After 24 h, […]
(§4) the transfected cells were seeded onto 384-microtiter plates at a density of 3,000 cells per well […]
(§5) in stimulation buffer (HBSS supplemented with 5 mM HEPES, 0.1% (w/v) casein and 0.5 mM […]
(§6) 3-isobutyl-1-methylxanthine). Different concentrations of retatrutide in stimulation buffer were […]
(§7) added, and the stimulation lasted for 40 min. The reaction was stopped by addition of cAMP […]
(§8) detection buffer containing Eu-cAMP tracer and ULight-anti-cAMP. Plates were then incubated for […]
(§9) 60 min at RT. Time-resolved FRET signals were measured at 620 nm and 665 nm, respectively, by […]
(§10) an EnVision multilabel plate reader (PerkinElmer). Data were analyzed in GraphPad PRISM 9.5 […]
(§11) and all values were normalized to that of the wild-type (WT).
(§12) Supplementary Fig. 5 Effects of receptor mutation on retatrutide-induced cAMP […]
(§13) accumulation. a-c, Signaling profiles of GLP-1R (a), GIPR (b) and GCGR (c) mutants. cAMP […]
(§14) accumulation was measured in wild-type (WT) and single-point mutated GLP-1R, GIPR or […]
(§15) GCGR expressing HEK-293T cells. cAMP levels were normalized to the maximum response […]
(§16) of the WT and dose-response curves were analyzed using a three-parameter logistic equation.
(§17) Data were generated and graphed as means ± S.E.M. of at least three independent experiments performed in quadruplicate.
(§18) (1 picture or pasted object on this page, not shown here)
(§19) Supplementary Ta b l e S 5 Effects of the ligand-binding pocket residue mutation on retatrutide- […]
(§20) induced cAMP signaling at GLP-1R, GIPR or GCGR. […]
(§21) cAMP levels were normalized to the maximum response of the wild-type (WT) and dose-response […]
(§22) curves were analyzed using a three-parameter logistic equation to obtain pEC50 and Emax values. The […]
(§23) experiments were carried out independently at least three times. Data shown are means ± S.E.M. One- […]
(§24) way ANOVA was used to determine statistical difference. N.D., values that could not be determined due […]
(§25) to incomplete curve fits. *P< 0.05, **P< 0.01, ***P< 0.001 and ****P<0.0001.

[2] = biological target: T2, GIPR mutants (Homo sapiens, UniProt P48546, R131E); assay: cAMP accumulation, single-point mutated GIPR; assay type: cell-based; conditions: GIPR R131(1.33b)E
T2 construct: expressed in transfected cells; host or cells: HEK-293T
T2 sequence (P48546 22-466 R131E): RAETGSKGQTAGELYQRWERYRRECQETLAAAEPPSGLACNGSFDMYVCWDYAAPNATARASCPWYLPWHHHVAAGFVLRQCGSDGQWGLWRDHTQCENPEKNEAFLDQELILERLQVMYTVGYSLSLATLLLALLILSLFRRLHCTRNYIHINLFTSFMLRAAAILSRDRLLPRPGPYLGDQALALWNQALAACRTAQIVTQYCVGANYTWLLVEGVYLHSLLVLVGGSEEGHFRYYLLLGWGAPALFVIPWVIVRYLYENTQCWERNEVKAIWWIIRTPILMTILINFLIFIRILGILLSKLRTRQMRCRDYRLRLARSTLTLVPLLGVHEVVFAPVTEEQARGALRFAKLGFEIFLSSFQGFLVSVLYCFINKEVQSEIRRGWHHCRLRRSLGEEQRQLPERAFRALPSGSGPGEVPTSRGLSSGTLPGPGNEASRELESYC
Description: as §1, §2, §3, §4, §5, §6, §7, §8, §9, §10, §11, §12, §13, §14, §15, §16, §17, §18, §19, §20, §21, §22, §23, §24, §25

[3] = biological target: T3, GIPR mutants (Homo sapiens, UniProt P48546, E377A); assay: cAMP accumulation, single-point mutated GIPR; assay type: cell-based
T3 construct: expressed in transfected cells; host or cells: HEK-293T
T3 sequence (P48546 22-466 E377A): T2 sequence (P48546 22-466 R131E) with E110R, E356A
Description: as §1, §2, §3, §4, §5, §6, §7, §8, §9, §10, §11, §12, §13, §14, §15, §16, §17, §18, §19, §20, §21, §22, §23, §24, §25

[4] = biological target: T4, GIPR mutants (Homo sapiens, UniProt P48546, R289A); assay: cAMP accumulation, single-point mutated GIPR; assay type: cell-based; conditions: GIPR R289(ECL2)A, HEK-293T, 40 min, TR-FRET, mean ± S.E.M., n at least 3
T4 construct: expressed in transfected cells; host or cells: HEK-293T
T4 sequence (P48546 22-466 R289A): as the sequence (P48546 22-466 Q285A) above, with A264Q, R268A counted along it
Description: as §1, §2, §3, §4, §5, §6, §7, §8, §9, §10, §11, §12, §13, §14, §15, §16, §17, §18, §19, §20, §21, §22, §23, §24, §25

[5] = cited from earlier work; for decrease in body weight (up to): single dose, ref Coskun T et al (supplement ref 17)
Description: For humans, events were mild, such as 50 1 ascending (PMID: 4 months ...

[6] = biological target: T5, GLP-1R mutants (Homo sapiens, UniProt P43220, R299A); assay: cAMP accumulation, single-point mutated GLP-1R; assay type: cell-based; conditions: GLP-1R R299(ECL2)A, HEK-293T, 40 min, TR-FRET, mean ± S.E.M., n at least 3
T5 construct: expressed in transfected cells; host or cells: HEK-293T
T5 sequence (P43220 24-463 R299A): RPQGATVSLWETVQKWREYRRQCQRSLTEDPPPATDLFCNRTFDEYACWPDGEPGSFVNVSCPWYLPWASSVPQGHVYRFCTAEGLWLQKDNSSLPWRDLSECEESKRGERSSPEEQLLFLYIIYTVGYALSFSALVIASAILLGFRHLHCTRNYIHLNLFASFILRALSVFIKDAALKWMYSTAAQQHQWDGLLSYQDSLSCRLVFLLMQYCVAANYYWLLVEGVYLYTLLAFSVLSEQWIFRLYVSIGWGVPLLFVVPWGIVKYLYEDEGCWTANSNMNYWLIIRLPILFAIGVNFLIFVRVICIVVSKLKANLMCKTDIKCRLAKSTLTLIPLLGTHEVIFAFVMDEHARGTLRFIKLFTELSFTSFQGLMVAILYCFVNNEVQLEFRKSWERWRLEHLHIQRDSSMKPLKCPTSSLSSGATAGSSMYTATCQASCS
Description: as §1, §2, §3, §4, §5, §6, §7, §8, §9, §10, §11, §12, §13, §14, §15, §16, §17, §18, §19, §20, §21, §22, §23, §24, §25

[7] = biological target: T6, GLP-1R mutants (Homo sapiens, UniProt P43220, E138R); assay: cAMP accumulation, single-point mutated GLP-1R; assay type: cell-based; conditions: GLP-1R E138(1.33b)R; HEK-293T, 40 min, TR-FRET; mean ± S.E.M., n at least 3
T6 construct: expressed in transfected cells; host or cells: HEK-293T
T6 sequence (P43220 24-463 E138R): as the sequence (P43220 24-463 R299A) above, with E115R, A276R counted along it
Description: as §1, §2, §3, §4, §5, §6, §7, §8, §9, §10, §11, §12, §13, §14, §15, §16, §17, §18, §19, §20, §21, §22, §23, §24, §25

[8] = biological target: T7, GIPR (Homo sapiens, UniProt P48546); assay: cAMP accumulation, wild-type GIPR; assay type: cell-based; conditions: HEK-293T, 40 min, TR-FRET, mean ± S.E.M.
T7 construct: expressed in transfected cells; host or cells: HEK-293T
T7 sequence (P48546 22-466): as the sequence (P48546 22-466 Q285A) above, with A264Q counted along it
Description: as §1, §2, §3, §4, §5, §6, §7, §8, §9, §10
and all values were normalized to that of the wild-type (WT). […]
as §14
of the WT and dose-response curves were analyzed using a three-parameter logistic equation. […]
curves were analyzed using a three-parameter logistic equation to obtain pEC50 and Emax values. […]
as §24

Compound: CC[C@H](C)[C@H](NC(=O)[C@H](Cc1ccccc1)NC(=O)[C@H](C)NC(=O)C(C)(C)NC(=O)[C@H](CCC(N)=O)NC(=O)[C@H](C)NC(=O)[C@H](CCCCNC(=O)COCCOCCNC(=O)CC[C@H](NC(=O)CCCCCCCCCCCCCCCCCCC(=O)O)C(=O)O)NC(=O)[C@H](CCCCN)NC(=O)[C@H](CC(=O)O)NC(=O)[C@H](CC(C)C)NC(=O)[C@](C)(CC(C)C)NC(=O)[C@@H](NC(=O)[C@H](CO)NC(=O)[C@H](Cc1ccc(O)cc1)NC(=O)[C@H](CC(=O)O)NC(=O)[C@H](CO)NC(=O)[C@@H](NC(=O)[C@H](Cc1ccccc1)NC(=O)[C@@H](NC(=O)CNC(=O)[C@H](CCC(N)=O)NC(=O)C(C)(C)NC(=O)[C@@H](N)Cc1ccc(O)cc1)[C@@H](C)O)[C@@H](C)O)[C@@H](C)CC)C(=O)N[C@@H](CCC(=O)O)C(=O)N[C@@H](Cc1ccc(O)cc1)C(=O)N[C@@H](CC(C)C)C(=O)N[C@@H](CC(C)C)C(=O)N[C@@H](CCC(=O)O)C(=O)NCC(=O)NCC(=O)N1CCC[C@H]1C(=O)N[C@@H](CO)C(=O)N[C@@H](CO)C(=O)NCC(=O)N[C@@H](C)C(=O)N1CCC[C@H]1C(=O)N1CCC[C@H]1C(=O)N1CCC[C@H]1C(=O)N[C@@H](CO)C(N)=O [retatrutide]
- EC50 [1]: 1.74 pM
- Emax ± S.E.M. (% WT) [1]: 100.34 ± 4.02 % WT
- change of retatrutide potency by mutation ([2]; relative to WT, modestly): decreased
- Emax ± S.E.M. (% WT) ([2]; HEK-293T, 40 min, TR-FRET, mean ± S.E.M., n at least 3): 98.44 ± 3.88 % WT
- EC50 ([2]; HEK-293T, 40 min, TR-FRET, mean ± S.E.M., n at least 3, **P < 0.01): 9.33 pM
- decrease of cAMP signaling potency by mutation ([3]; GIPR E7.42bA (E377A), relative to WT): 71.6 fold
- Emax ± S.E.M. (% WT) ([3]; GIPR E377(7.42b)A, HEK-293T, 40 min, TR-FRET, mean ± S.E.M., n at least 3): 99.83 ± 6.38 % WT
- EC50 ([3]; GIPR E377(7.42b)A, HEK-293T, 40 min, TR-FRET, mean ± S.E.M., n at least 3, ****P < 0.0001): 166 pM
- Emax ± S.E.M. (% WT) [4]: 98.56 ± 4.01 % WT
- EC50 ([4]; ***P < 0.001): 12.6 pM
- body weight reduction ([5]; 3 mg group, ref Urva S et al (supplement ref 18)): –4.71 kg
- decrease in body weight (up to) ([5]; 4.5 mg): –2.93 kg
- decrease in body weight (up to) ([5]; 6 mg): –3.52 kg
- body weight reduction ([5]; 3/6 mg group, ref Urva S et al (supplement ref 18)): –7.83 kg
- fasting and postprandial plasma glucose and HbA1c ([5]; compared to placebo, ref Urva S et al (supplement ref 18)): clinically decreases
- severity of most treatment-related adverse events ([5]; human, in vivo): mild
- glycemic control ([5]; ref Urva S et al (supplement ref 18)): showed glycemic control efficacy
- Emax ± S.E.M. (% WT) [6]: 101.97 ± 3.92 % WT
- EC50 ([6]; ***P < 0.001): 41.7 pM
- EC50 [7]: 3.55 pM
- Emax ± S.E.M. (% WT) [7]: 100.84 ± 3.40 % WT
- EC50 ([8]; GIPR WT, at least 3 independent experiments in quadruplicate): 2.29 pM
- Emax ± S.E.M. (% WT) ([8]; n at least 3): 100.00 ± 2.84 % WT
